Source: paper PMC10490032, “From Monoamine Oxidase Inhibition to Antiproliferative Activity: New Biological Perspectives for Polyamine Analogs” (Molecules, 2023)
Entries after “also recorded” stand apart in the source; their conditions may differ. Blank lines part the entries; values can stand above or below the molecule they belong to.

Legend:
[1] = test system: LN-229 glioblastoma cell line; assay: Inhibition growth assay, Trypan blue exclusion; assay type: cell-based, human; conditions: Homo sapiens, LN-229, 48 h, LN-229, 48 h of incubation; mean ± SD of five independent experiments in duplicate
Description: On this basis, we investigated the antiproliferative effect of compounds 1–7 on LN-229, a human glioblastoma cell line. Compound 1 and the well-known antitumor drug doxorubicin were taken as references. […] The data in Table 3 support the lack of cytotoxicity of compound 1.
The LN-229 (human glioblastoma) was purchased from the American Type Culture Collection (ATCC) and cultured in DMEM (D2902, Sigma Chemical Co., St. Louis, MO, USA) supplemented with 3.5 g/L of glucose and 5% heat-inactivated fetal calf serum (FCS) (F7524, Sigma Chemical Co.), respectively. A total of 100 U/mL of penicillin, 100 μg/mL of streptomycin, and 0.25 μg/mL of amphotericin B (Sigma Chemical Co.) were added to the medium. Cells were cultured at 37 °C in a humidified atmosphere incubator containing 5% carbon dioxide in air.
Cells (3–6 × 10^4/well) were seeded into a 24-well cell culture plate; after 24 h, different concentrations of the test compounds or reference drug were added. After 48 h of incubation in standard conditions, the cell viability was determined by using a Trypan blue exclusion assay. Briefly, cells were detached by using a […] and 0.3 mM EDTA solution in PBS and stained with 0.1% Trypan blue solution in PBS. Unstained viable cells were immediately counted in a Burker chamber. The percentage of viable cells was calculated with respect to the untreated control culture. […] The goodness of the fit was expressed by the r^2 coefficient, and the best fit report included the analysis of variance corrected for the mean of the observations with the p values (p < 0.005 for all the tested compounds). Data are the means ± SD of at least five independent experiments in duplicate.

MAO = assay: Test of compounds as potential MAO substrates, Amplex Red/horseradish peroxidase coupled method; assay type: biochemical, human; conditions: up to a 50 μM concentration
Protocol: Before evaluating the potential MAO inhibitory capability of derivatives 2–7, kinetic experiments were performed to assay their behaviors as potential MAO substrates by using the Amplex Red/horseradish peroxidase coupled method, which detects the hydrogen peroxide produced by the amine oxidase enzyme activity in the presence of an amine substrate. […] Thus, for the subsequent inhibition studies, an assay method that used kynuramine as the MAO substrate and detected the production of 4-hydroxyquinoline (formed from the aldehyde reaction product) was applied.
Except for compound 4, no significant interference of the other polyamine analogs with the preliminary calibration curves was observed. […] The evaluations of the effects of compounds 1–7 on the MAO activity were performed by using a kynuramine assay due to the interferences of compound 4 with the Amplex Red method.

human VAP-1 [2] = target: T1, human VAP-1 (Homo sapiens, UniProt Q16853); parameters: Biothie Therapies Cor; (Turku, Finland), gift; method as in PMID 21858471, PMID 30829081; conditions: previous studies ref 35, 40; cited from earlier work
T1 sequence (Q16853 1-763): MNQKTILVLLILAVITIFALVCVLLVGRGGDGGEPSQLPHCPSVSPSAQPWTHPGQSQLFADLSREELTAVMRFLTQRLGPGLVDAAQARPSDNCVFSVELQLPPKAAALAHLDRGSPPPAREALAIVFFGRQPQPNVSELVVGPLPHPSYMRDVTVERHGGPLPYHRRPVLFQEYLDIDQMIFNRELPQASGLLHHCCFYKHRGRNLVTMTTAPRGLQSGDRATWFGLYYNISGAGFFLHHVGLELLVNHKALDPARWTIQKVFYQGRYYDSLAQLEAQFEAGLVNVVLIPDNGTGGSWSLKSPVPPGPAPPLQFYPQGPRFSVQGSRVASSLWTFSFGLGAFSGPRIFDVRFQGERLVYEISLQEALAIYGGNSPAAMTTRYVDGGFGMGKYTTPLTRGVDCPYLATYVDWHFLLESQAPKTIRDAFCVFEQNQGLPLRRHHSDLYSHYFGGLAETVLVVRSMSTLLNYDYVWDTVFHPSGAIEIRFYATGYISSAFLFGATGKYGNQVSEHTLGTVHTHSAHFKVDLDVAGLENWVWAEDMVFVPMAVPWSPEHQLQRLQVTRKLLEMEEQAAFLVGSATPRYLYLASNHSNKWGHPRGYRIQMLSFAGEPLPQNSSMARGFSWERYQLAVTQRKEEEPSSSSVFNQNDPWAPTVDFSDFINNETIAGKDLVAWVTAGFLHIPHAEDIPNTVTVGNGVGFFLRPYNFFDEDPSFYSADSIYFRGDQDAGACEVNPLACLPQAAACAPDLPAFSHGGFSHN

murine SMOX [3] = target: T2, murine SMOX (Mus musculus, UniProt Q99K82); parameters: made in house; host or cells: E. coli BL21 DE3; conditions: previous studies ref 35, 40; cited from earlier work
human recombinant MAO A = target: T3, human recombinant MAO A (Homo sapiens, UniProt P21397); assay: MAO A inhibition, kynuramine assay (4-hydroxyquinoline fluorescence); conditions: MAO A Ki, human recombinant MAO A; kynuramine 10 μM; from slope of Vo/VI vs compound concentration (1.25–40 μM); mean ± S.D.
T3 sequence (P21397 1-527): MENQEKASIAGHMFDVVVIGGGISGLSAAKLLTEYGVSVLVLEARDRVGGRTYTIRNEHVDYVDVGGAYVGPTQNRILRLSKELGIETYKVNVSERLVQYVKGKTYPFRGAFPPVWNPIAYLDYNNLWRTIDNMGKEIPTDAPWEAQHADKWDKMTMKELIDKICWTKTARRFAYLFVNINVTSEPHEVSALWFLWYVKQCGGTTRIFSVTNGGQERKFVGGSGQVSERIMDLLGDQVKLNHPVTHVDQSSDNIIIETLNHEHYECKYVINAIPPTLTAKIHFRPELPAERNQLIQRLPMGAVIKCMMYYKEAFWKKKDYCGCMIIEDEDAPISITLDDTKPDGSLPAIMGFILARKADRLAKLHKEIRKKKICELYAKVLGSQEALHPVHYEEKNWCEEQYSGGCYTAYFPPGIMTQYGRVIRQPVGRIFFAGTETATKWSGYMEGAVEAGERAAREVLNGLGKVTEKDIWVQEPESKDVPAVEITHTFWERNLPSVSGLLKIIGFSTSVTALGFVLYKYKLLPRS

human recombinant MAO B [4] = target: T4, human recombinant MAO B (Homo sapiens, UniProt P27338); assay: MAO B inhibition, kynuramine assay (4-hydroxyquinoline fluorescence); conditions: MAO B Ki, human recombinant MAO B; kynuramine 10 μM; from slope of Vo/VI vs compound concentration (1.25–40 μM); mean ± S.D.
T4 sequence (P27338 1-520): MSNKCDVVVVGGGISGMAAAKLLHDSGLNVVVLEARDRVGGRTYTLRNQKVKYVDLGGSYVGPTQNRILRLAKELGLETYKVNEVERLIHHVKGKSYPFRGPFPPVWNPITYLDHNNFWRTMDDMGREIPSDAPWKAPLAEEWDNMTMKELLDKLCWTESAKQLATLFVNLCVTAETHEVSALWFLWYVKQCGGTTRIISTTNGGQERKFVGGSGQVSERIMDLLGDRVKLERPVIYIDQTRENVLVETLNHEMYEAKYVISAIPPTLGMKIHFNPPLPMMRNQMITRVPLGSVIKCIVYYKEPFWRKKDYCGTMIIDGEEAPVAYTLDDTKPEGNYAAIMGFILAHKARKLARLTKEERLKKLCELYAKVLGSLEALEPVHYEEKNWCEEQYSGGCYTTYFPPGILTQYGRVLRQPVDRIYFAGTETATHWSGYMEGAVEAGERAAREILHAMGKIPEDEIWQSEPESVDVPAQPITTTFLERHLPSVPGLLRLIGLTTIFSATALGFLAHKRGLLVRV

human recombinant MAO B [5] = target: T4, human recombinant MAO B; parameters: purchased Merk s.r.l; (Italy); host or cells: baculovirus-infected BT1 cells; method as in PMID 21858471; conditions: previous study ref 35; cited from earlier work
murine SMOX [6] = target: T2, murine SMOX; assay: SMOX amine oxidase activity, Amplex Red/horseradish peroxidase assay, spermine as substrate; conditions: up to a 50 μM concentration
human VAP-1 [7] = target: T1, human VAP-1; assay: VAP-1 amine oxidase activity, Amplex Red/horseradish peroxidase assay, benzylamine as substrate; conditions: up to a 50 μM concentration
[8] = substrate: NCCC(=O)c1ccccc1N; assay: purified protein, by the assay type; conditions: other: substrate, human recombinant MAO A; pH 7.4; 37.0 °C

T2 sequence (Q99K82 whole entry): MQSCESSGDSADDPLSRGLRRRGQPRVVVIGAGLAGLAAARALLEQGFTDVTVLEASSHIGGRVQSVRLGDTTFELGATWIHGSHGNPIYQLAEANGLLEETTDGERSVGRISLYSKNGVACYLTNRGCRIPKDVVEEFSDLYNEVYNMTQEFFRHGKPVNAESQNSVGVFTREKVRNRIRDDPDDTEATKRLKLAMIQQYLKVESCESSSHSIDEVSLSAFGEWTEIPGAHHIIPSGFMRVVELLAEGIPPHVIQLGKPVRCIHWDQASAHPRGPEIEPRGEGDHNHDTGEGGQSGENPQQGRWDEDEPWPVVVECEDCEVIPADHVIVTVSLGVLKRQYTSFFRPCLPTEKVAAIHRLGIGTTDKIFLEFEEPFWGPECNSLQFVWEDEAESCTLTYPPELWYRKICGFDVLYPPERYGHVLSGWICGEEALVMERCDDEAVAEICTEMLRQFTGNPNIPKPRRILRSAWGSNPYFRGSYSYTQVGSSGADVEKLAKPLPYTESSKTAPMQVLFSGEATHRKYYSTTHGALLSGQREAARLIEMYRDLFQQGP

GI50 [1]: 4.6 ± 1.1 µM
Behaviour as MAO substrate (MAO): did not act as substrates
Ki (human recombinant MAO A): 247 ± 42 µM
Ki (human recombinant MAO B [4]): 330 ± 30 µM
Molecule: COc1ccccc1CNCCCCCCN1CCC(CCC2CCN(CCCCCCNCc3ccccc3OC)CC2)CC1 [Compound 2]
Inhibition of VAP-1 (human VAP-1 [2]): poor inhibitor
Inhibition of SMOX (murine SMOX [3]): poor inhibitor
Mode of inhibition of MAO B (human recombinant MAO B [5]): mainly competitive/mixed; also recorded: reversible mixed-type

GI50 [1]: 2.2 ± 0.9 µM
Behaviour as MAO substrate (MAO): did not act as substrates
Ki (human recombinant MAO A): 70 ± 7 µM
Ki (human recombinant MAO B [4]): 19 ± 2 µM
Behaviour as SMOX substrate (murine SMOX [6]): not substrates
Behaviour as VAP-1 substrate (human VAP-1 [7]): not substrates
Molecule: COc1ccccc1CNCCCCCC(=O)N1CCC(CCC2CCN(C(=O)CCCCCNCc3ccccc3OC)CC2)CC1 [Compound 3]

B1: human recombinant MAO A (Homo sapiens) (protein)
chain: T3 sequence (P21397 1-527)
Km [8]: 32 ± 11 µM
